# Test results as given in article doi:10.1101/2025.11.06.686927v1 (biorxiv, 2025).
# How the values were obtained:
# [1] = system: U2OS; assay: cells; parameters: species or system RPE-1, HCT116, SH-SY5Y; conditions: Homo sapiens, 48 h, read-out: U2OS EC50
# [2] = target: T1, HASPIN (Homo sapiens, UniProt Q8TF76); assay: biochemical; conditions: read-out: % of control remaining
# T1 sequence (Q8TF76 1-798): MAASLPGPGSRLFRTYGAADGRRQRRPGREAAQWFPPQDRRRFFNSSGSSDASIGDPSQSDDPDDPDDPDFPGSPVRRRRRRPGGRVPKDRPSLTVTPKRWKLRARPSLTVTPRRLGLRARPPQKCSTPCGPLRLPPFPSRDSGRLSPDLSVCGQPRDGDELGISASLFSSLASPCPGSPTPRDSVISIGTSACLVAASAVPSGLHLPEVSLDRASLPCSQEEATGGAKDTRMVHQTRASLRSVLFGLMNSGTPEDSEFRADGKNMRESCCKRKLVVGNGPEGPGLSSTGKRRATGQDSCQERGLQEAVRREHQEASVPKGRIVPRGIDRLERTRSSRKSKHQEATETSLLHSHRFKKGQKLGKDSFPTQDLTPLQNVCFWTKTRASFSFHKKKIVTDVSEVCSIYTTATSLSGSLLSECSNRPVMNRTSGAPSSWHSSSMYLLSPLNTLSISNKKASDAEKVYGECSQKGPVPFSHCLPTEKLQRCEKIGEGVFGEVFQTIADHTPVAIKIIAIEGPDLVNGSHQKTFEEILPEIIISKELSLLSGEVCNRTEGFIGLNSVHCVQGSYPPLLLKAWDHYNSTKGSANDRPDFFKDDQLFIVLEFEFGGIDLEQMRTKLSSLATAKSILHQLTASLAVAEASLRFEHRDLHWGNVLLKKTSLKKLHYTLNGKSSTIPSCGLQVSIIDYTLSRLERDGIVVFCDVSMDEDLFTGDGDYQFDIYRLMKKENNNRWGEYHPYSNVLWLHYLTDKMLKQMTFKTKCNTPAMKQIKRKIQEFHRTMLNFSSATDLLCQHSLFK
# [3] = in vitro; parameters: species or system HCT116, SH-SY5Y, U2OS; conditions: human, rpe-1 cells
# [4] = target: PIM1 (Homo sapiens, UniProt P11309); assay: biochemical; conditions: read-out: % of control remaining
# [5] = system: SH-SY5Y; assay: cells; parameters: species or system RPE-1, HCT116, U2OS; conditions: Homo sapiens, 48 h, read-out: SHSY-5Y EC50
# [6] = target: CDK5/P25 (Homo sapiens, UniProt Q00535); assay: biochemical; conditions: read-out: % of control remaining
# [7] = target: T2, CDK8-cyclin C (HsCDK8/Cyclin C) (Homo sapiens, UniProt P49336); assay: biochemical; conditions: read-out: % of control remaining
# [8] = target: T2, CDK8-cyclin C (HsCDK8/Cyclin C); assay: radiometric […]-ATP kinase assay, RBER-IRStide substrate; assay type: biochemical
# [9] = target: CDK2/cyclin A (Homo sapiens, UniProt P24941); assay: biochemical; conditions: read-out: % of control remaining
# [10] = system: HCT116; assay: cells; parameters: species or system RPE-1, SH-SY5Y, U2OS; conditions: Homo sapiens, HCT-116, 48 h, read-out: HCT116 EC50
# [11] = target: T3, DYRK1A (RnDYRK1A-kd) (Rattus norvegicus, UniProt Q63470); assay: biochemical; conditions: read-out: % of control remaining
# [12] = target: T4, CLK1 (MmCLK1) (Mus musculus, UniProt P22518); assay: biochemical; conditions: read-out: % of control remaining
# [13] = target: T4, CLK1 (MmCLK1); assay: radiometric […]-ATP kinase assay, peptide GRSRSRSRSRSR; assay type: biochemical; conditions: read-out: % residual activity at 10 μM
# [14] = target: T3, DYRK1A (RnDYRK1A-kd); assay: radiometric […]-ATP kinase assay, peptide KKISGRLSPIMTEQ; assay type: biochemical; conditions: read-out: % residual activity at 10 μM
# Sequence of PIM1 (P11309 whole entry): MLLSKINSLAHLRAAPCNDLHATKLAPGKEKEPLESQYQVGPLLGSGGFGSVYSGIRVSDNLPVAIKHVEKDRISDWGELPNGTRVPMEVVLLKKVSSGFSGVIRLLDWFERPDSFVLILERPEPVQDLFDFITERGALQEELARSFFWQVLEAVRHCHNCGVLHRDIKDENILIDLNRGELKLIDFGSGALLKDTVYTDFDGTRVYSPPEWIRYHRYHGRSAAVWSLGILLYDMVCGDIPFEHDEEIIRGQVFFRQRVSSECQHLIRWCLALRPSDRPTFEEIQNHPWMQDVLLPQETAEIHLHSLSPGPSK
# Sequence of CDK5/P25 (Q00535 whole entry): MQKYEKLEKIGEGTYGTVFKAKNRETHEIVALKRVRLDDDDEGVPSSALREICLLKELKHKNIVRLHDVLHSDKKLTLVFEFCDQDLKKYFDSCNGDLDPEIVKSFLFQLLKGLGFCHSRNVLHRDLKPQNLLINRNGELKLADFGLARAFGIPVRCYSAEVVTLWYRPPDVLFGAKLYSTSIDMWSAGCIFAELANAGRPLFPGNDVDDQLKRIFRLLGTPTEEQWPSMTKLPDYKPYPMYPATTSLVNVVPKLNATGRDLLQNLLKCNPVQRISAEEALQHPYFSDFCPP
# Sequence of CDK5/P25 (Q15078 whole entry partner): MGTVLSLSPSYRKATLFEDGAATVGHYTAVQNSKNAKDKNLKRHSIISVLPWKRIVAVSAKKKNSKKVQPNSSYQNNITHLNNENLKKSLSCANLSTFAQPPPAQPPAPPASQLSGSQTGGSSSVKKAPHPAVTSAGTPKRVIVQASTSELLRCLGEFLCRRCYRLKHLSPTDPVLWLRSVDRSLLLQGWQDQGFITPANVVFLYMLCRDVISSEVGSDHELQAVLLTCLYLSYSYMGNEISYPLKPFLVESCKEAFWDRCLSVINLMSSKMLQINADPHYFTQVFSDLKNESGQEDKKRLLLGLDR
# T2 sequence (P49336 whole entry): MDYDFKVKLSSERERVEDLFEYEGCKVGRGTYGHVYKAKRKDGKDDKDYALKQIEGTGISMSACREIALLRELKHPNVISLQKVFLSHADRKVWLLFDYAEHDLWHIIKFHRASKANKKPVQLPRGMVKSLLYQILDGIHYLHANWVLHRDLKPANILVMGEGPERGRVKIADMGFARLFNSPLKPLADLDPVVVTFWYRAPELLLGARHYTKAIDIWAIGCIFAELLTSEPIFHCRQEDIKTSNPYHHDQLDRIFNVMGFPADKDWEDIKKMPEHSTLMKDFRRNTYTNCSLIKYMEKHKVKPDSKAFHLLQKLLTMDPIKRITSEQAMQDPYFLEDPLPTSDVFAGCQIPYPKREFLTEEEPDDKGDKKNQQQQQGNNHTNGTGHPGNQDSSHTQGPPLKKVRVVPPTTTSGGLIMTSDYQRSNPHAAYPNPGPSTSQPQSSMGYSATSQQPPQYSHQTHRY
# T2 sequence (P24863 whole entry partner): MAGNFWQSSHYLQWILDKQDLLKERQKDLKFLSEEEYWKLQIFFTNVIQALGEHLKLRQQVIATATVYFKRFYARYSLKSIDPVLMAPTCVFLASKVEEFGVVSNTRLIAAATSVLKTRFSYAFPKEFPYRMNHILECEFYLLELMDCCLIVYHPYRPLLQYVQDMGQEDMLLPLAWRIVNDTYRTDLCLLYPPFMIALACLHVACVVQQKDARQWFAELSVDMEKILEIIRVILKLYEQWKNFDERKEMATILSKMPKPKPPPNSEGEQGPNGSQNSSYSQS
# T4 sequence (P22518 whole entry): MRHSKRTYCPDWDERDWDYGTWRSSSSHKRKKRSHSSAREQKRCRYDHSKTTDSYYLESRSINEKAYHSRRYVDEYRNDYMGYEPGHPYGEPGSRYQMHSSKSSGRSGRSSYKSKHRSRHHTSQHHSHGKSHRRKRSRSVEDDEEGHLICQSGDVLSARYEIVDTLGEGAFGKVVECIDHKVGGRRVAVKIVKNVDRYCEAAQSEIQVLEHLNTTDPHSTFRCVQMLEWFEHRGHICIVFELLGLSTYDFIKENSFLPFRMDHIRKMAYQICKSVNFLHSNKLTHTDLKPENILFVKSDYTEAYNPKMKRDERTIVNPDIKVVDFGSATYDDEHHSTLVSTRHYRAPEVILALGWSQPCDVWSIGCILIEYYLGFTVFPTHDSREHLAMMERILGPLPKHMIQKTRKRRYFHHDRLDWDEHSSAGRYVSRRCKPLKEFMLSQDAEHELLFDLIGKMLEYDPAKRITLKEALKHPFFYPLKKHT
smiles,measurement,setting,value
"Cc1ccc(NC(=O)Nc2ccc(Cc3ccncc3)cc2)cc1C [compound 82, #82]",EC50,[1],10 µM
same,remaining activity at 10 µM,[2],111%
same,CC50 at 48 h,[3],> 50 µM
same,remaining activity at 10 µM,[4],89%
same,EC50,[5],24 µM
same,remaining activity at 10 µM,[6],109%
same,remaining activity at 10 µM,[7],19%
same,IC50,[8],0.005 µM
same,remaining activity at 10 µM,[9],120%
same,EC50,[10],31 µM
same,remaining activity at 10 µM,[11],134%
same,remaining activity at 10 µM,[12],81%
"O=C(Nc1ccc2oc(-c3cccnc3)nc2c1)c1ncoc1-c1ccccc1Cl [compound 76, #76]",EC50,[1],> 50 µM
same,remaining activity at 10 µM,[2],116%
same,CC50 at 48 h,[3],> 50 µM
same,remaining activity at 10 µM,[4],109%
same,EC50,[5],> 50 µM
same,remaining activity at 10 µM,[6],89%
same,remaining activity at 10 µM,[7],11%
same,IC50,[8],0.1 µM
same,remaining activity at 10 µM,[9],73%
same,remaining activity at 10 µM,[13],37%
same,EC50,[10],> 50 µM
same,remaining activity at 10 µM,[11],80%
"O=C(NC[C@@H]1Cc2cc(-c3cncnc3)ccc2O1)c1scc2c1CCCC2 [compound 47, #47]",EC50,[1],> 50 µM
same,remaining activity at 10 µM,[2],118%
same,CC50 at 48 h,[3],> 50 µM
same,remaining activity at 10 µM,[4],89%
same,EC50,[5],> 50 µM
same,remaining activity at 10 µM,[6],107%
same,remaining activity at 10 µM,[7],5%
same,IC50,[8],0.2 µM
same,remaining activity at 10 µM,[9],81%
same,EC50,[10],> 50 µM
same,remaining activity at 10 µM,[11],75%
same,remaining activity at 10 µM,[12],109%
"O=C(Nc1ccc(Cc2ccncc2)cc1)Nc1cccc2ccccc12 [compound 22, #22]",EC50,[1],14 µM
same,remaining activity at 10 µM,[2],96%
same,CC50 at 48 h,[3],10 µM
same,remaining activity at 10 µM,[4],85%
same,EC50,[5],41 µM
same,remaining activity at 10 µM,[6],115%
same,remaining activity at 10 µM,[7],10%
same,IC50,[8],0.16 µM
same,remaining activity at 10 µM,[9],76%
same,EC50,[10],29 µM
same,remaining activity at 10 µM,[11],83%
same,remaining activity at 10 µM,[12],151%
N#Cc1ccc2ncnc(NCCc3ccccc3)c2c1 [Senexin A],EC50,[1],48 µM
same,CC50 at 48 h,[3],41 µM
same,remaining activity at 10 µM,[4],78%
same,EC50,[5],> 50 µM
same,remaining activity at 10 µM,[6],57%
same,remaining activity at 10 µM,[7],15%
same,IC50,[8],0.03 µM
same,remaining activity at 10 µM,[9],62%
same,remaining activity at 10 µM,[13],34%
same,EC50,[10],> 50 µM
same,remaining activity at 10 µM,[14],-7%
"O=C(NC[C@H]1CC(=O)N(c2ccc3c(c2)OCO3)C1)Nc1cccc(C(F)(F)F)c1 [compound 75, #75]",EC50,[1],> 50 µM
same,remaining activity at 10 µM,[2],123%
same,CC50 at 48 h,[3],> 50 µM
same,remaining activity at 10 µM,[4],95%
same,EC50,[5],> 50 µM
same,remaining activity at 10 µM,[6],101%
same,remaining activity at 10 µM,[7],8%
same,IC50,[8],0.05 µM
same,remaining activity at 10 µM,[9],106%
same,EC50,[10],> 50 µM
same,remaining activity at 10 µM,[11],89%
same,remaining activity at 10 µM,[12],99%
"Cc1cccc(OCC(=O)Nc2ccc3oc(-c4cccnc4)nc3c2)c1C [compound 45, #45]",EC50,[1],9 µM
same,remaining activity at 10 µM,[2],144%
same,CC50 at 48 h,[3],43 µM
same,remaining activity at 10 µM,[4],127%
same,EC50,[5],8 µM
same,remaining activity at 10 µM,[6],115%
same,remaining activity at 10 µM,[7],6%
same,IC50,[8],0.03 µM
same,remaining activity at 10 µM,[9],82%
same,EC50,[10],19 µM
same,remaining activity at 10 µM,[11],73%
same,remaining activity at 10 µM,[12],143%
"O=C(CSc1ccc(-c2cccnc2)nn1)Nc1cccc(C(F)(F)F)c1 [compound 9, #9]",EC50,[1],> 50 µM
same,remaining activity at 10 µM,[2],94%
same,CC50 at 48 h,[3],> 50 µM
same,remaining activity at 10 µM,[4],71%
same,EC50,[5],> 50 µM
same,remaining activity at 10 µM,[6],107%
same,remaining activity at 10 µM,[7],10%
same,IC50,[8],0.04 µM
same,remaining activity at 10 µM,[9],78%
same,EC50,[10],> 50 µM
same,remaining activity at 10 µM,[11],80%
same,remaining activity at 10 µM,[12],111%
